The source of these data is patent US20240270758A1, “PYRIDINO-OR PYRIMIDO-CYCLIC COMPOUND, PREPARATION METHOD THEREFOR AND MEDICAL USE THEREOF” (Genfleet Therapeutics (Shanghai) Inc., priority 2021, published 2024).

For test [1], the system named is AGS cells (KRAS^G12D mutation). Kind of test: Cell proliferation inhibition assay (3D, CellTiter-Glo), AGS. As to conditions: 3D cell model, 5 days. Format: cell-based, human. The method, boiled down: (§1)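 3D spheroids of AsPC-1 (800 cells/well, RPMI-1640) or AGS (400 cells/well, F-12K), 10% FBS, seeded overnight, then exposed 5 days to 3.16-fold compound dilutions (0.1% DMSO final). CellTiter-Glo 3D luminescence gives inhibition relative to DMSO and medium blanks; IC50 from four-parameter fit.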
A general note: In ATP-based viability assays light output follows the ATP content of the culture.

In test [2] the test system is p-ERK in AGS cells (KRAS^G12D mutation). The experiment in a line: Cell p-ERK detection assay. Particulars: 3 h incubation, HTRF. Type of test: cell-based, human. The method, boiled down: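 AGS cells (KRAS G12D, ~20,000/well in F12K+10% FBS) treated next day with compound at 3.16-fold dilutions, 0.1% DMSO final, for 3 h. Lysates assayed for ERK phospho-T202/Y204 by HTRF after 4 h; inhibition vs DMSO and blank, IC50 from four-parameter fit.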
For orientation: In TR-FRET formats the signal depends on donor and acceptor labels being close together.

Test [3] concerns the target KRAS^G12D mutant protein binding to RBD region fragment of RAF1 protein (Homo sapiens (Human), UniProt P01116, G12D). The experiment in a line: KRAS-RAF1 binding assay (HTRF), KRAS G12D. Particulars: His-KRAS^G12D, GST-RAF1-RBD, GTP. The protocol: (§2) GST-RAF1-RBD was purchased from BPS Bioscience; Cat. NO.: 100519; KRAS^G12D was purchased from BPS Bioscience; Cat. NO.: 100623; KRAS^wt was purchased from Reactionbiology; GTP was purchased from Sigma; Cat. NO.: G8877; Mab Anti GST-XL665 was purchased from cisbio; Cat. NO.: 61GSTXLF; Eu-W1024-anti-6×HIS was purchased from PE; Cat. NO.: AD0111; ProxiPlate-384-Plates was purchased from PerkinElmer; Cat. NO.: 6008289; DMSO was purchased from VWR AMRESCO; Cat. NO.: 0231-500ML; microplate reader was purchased from PerkinElmer; Cat. NO.: Envison;
(§3) This experiment is intended to investigate the inhibitory effect of compounds on the binding of KRAS^G12D mutant protein or KRAS^Wt (wild type) protein to fragments of the RBD region fragment of RAF1 protein. A 500×3-fold gradient concentration stock of compound was prepared using DMSO and diluted 50-fold into a 10× stock of compound using reaction buffer. To the reaction wells of an ELISA plate (ProxiPlate-384-Plates), was first added 3 µL of His-KRAS^G12D protein or KRAS^wt protein, then added 1 μL of 200 µM GTP and incubated for 30 min, then added 2 μL of 10× compound or reaction buffer with 2% DMSO (positive control) and incubated for 30 min, then added 4 μL of GST-RAF1-RBD protein or reaction buffer (negative control) and incubated for 15 min, then added […] anti-His antibody and XL665-labeled anti-GST antibody mixed well in advance and incubated for 60 min before reading HTRF signal by microplate reader. The inhibition ratio of compounds on KRAS protein (G12D mutant or wild type) and RAF1 binding was calculated IR (%)=(positive control signal-compound well signal)/(positive control signal-negative control signal)×100% and IC50 values were calculated by fitting compound concentrations and corresponding inhibition ratios using the Prism 8 four-parameter method. […] While the inhibition IC50 values of the compounds on the binding of KRAS^wt (wild type) protein to the RBD region fragment of RAF1 protein was more than 40 nM or 100 nM, or more than 500 nM, or even more than 1 μM or 2 μM.

For test [4], the system named is AsPC-1 cells (KRAS^G12D mutation). The experiment in a line: Cell proliferation inhibition assay (3D, CellTiter-Glo), AsPC-1. As to conditions: 3D cell model, 5 days. Format: cell-based, human. The method, boiled down: as §1
Test [5] deals with KRAS^wt (wild type) protein binding to RBD region fragment of RAF1 protein (Homo sapiens (Human), UniProt P01116). The experiment in a line: KRAS-RAF1 binding assay (HTRF), KRAS wild type. As to conditions: GST-RAF1-RBD, GTP. The protocol:
as §2, §3

Chain of KRAS^wt (wild type) protein binding to RBD region fragment of RAF1 protein (P01116-2 other isoform, or with tags, fused parts or gaps): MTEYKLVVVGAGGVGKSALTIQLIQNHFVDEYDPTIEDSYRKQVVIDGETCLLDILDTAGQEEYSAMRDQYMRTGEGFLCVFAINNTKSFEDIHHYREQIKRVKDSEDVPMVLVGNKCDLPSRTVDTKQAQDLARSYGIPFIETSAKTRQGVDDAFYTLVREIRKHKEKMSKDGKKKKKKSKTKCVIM
Chain of KRAS^G12D mutant protein binding to RBD region fragment of RAF1 protein (P01116-2 other isoform, or with tags, fused parts or gaps G12D): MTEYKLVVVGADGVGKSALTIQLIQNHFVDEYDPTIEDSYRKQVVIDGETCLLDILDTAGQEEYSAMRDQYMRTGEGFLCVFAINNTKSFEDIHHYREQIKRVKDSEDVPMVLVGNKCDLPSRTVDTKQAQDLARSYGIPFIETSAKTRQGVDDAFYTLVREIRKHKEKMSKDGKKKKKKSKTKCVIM

The IC50 is the concentration that gives 50% inhibition. Higher therefore signals a need for much substance. Turning to `C#Cc1cccc2cc(O)cc(-c3ncc4c(N5C[C@H]6CC[C@@H](C5)N6)nc(OCC56CCCN5CC(=CF)C6)nc4c3F)c12` (stereo partly drawn) [Example Z5, 4-(4-((1R,5S)-3,8-diazabicyclo[3.2.1]octan-3-yl)-8-fluoro-2-((2-(fluoromethylene)tetrahydro-1H-pyrrolizin-7a(5H)-yl)methoxy)pyrido[4,3-d]pyrimidin-7-yl)-5-ethynylnaphthalen-2-ol], the IC50 in test [1] (Homo sapiens, AGS, 120 h) came out at 4.5 nM; in test [2] (Homo sapiens, AGS, 3 h), 1.16 nM; in test [3], 36.3 nM; in test [4] (Homo sapiens, ASPC1, 120 h), 29.4 nM; in test [5] it was 43.7 nM.
For `C#Cc1cccc2cc(O)cc(-c3ncc4c(N5C[C@H]6C=C[C@@H](C5)N6)nc(OC[C@@]56CCCN5C[C@H](F)C6)nc4c3F)c12` [Example Z7, 4-(4-((1R,5S)-3,8-diazabicyclo[3.2.1]oct-6-en-3-yl)-8-fluoro-2-(((2R,7aS)-2-fluorotetrahydro-1H-pyrrolizin-7a(5H)-yl)methoxy)pyrido[4,3-d]pyrimidin-7-yl)-5-ethynylnaphthalen-2-ol], the half-maximal inhibitory concentration (IC50) in test [1] (Homo sapiens, AGS, 120 h) was 32.6 nM; in test [2] (Homo sapiens, AGS, 3 h), 12 nM; in test [3], 72.6 nM; in test [4] (Homo sapiens, ASPC1, 120 h) it was 433 nM; in test [5], 1030 nM.
Take `C#Cc1c(F)ccc2cc(O)cc(-c3ccc4c(N5C[C@H]6CC[C@@H](C5)N6)nc(OCC56CCCN5CCC6)nc4c3F)c12` [Example Z9, 4-(4-((1R,5S)-3,8-diazabicyclo[3.2.1]octan-3-yl)-8-fluoro-2-((tetrahydro-1H-pyrrolizin-7a(5H)-yl)methoxy)quinazolin-7-yl)-5-ethynyl-6-fluoronaphthalen-2-ol]: the IC50 was 145 nM in test [1] (Homo sapiens, AGS, 120 h); 23.7 nM in test [2] (Homo sapiens, AGS, 3 h); 79.6 nM in test [3]; 300 nM in test [4] (Homo sapiens, ASPC1, 120 h); 261 nM in test [5].
`C=C1CN2CCCC2(COc2nc(N3C[C@H]4CC[C@@H](C3)N4)c3cnc(-c4cc(O)cc5cccc(CC)c45)c(F)c3n2)C1` (stereo partly drawn) [Example Z11, 4-(4-((1R,5S)-3,8-diazabicyclo[3.2.1]octan-3-yl)-8-fluoro-2-((2-methylenetetrahydro-1H-pyrrolizin-7a(5H)-yl)methoxy)pyrido[4,3-d]pyrimidin-7-yl)-5-ethylnaphthalen-2-ol]: the IC50 in test [1] (Homo sapiens, AGS, 120 h) was 2.5 nM; in test [2] (Homo sapiens, AGS, 3 h) it was 4.91 nM; in test [3] it was 45.9 nM; in test [4] (Homo sapiens, ASPC1, 120 h), 50.6 nM; in test [5] it was 263 nM.
For `C#Cc1cccc2cc(O)cc(-c3ncc4c(N5C[C@H]6CC[C@@H](C5)N6)nc(OCC56CCCN5CC(=C(C)C)C6)nc4c3F)c12` (stereo partly drawn) [Example Z14, 4-(4-((1R,5S)-3,8-diazabicyclo[3.2.1]octan-3-yl)-8-fluoro-2-((2-(propan-2-ylidene)tetrahydro-1H-pyrrolizin-7a(5H)-yl)methoxy)pyrido[4,3-d]pyrimidin-7-yl)-5-ethynylnaphthalen-2-ol], the IC50 in test [1] (Homo sapiens, AGS, 120 h) was 27.4 nM; in test [2] (Homo sapiens, AGS, 3 h), 10.1 nM; in test [3], 39.6 nM; in test [4] (Homo sapiens, ASPC1, 120 h), 143 nM; in test [5], 110 nM.
In the same order, the values of `C#Cc1cccc2cc(O)cc(-c3ncc4c(N5C[C@H]6C=C[C@@H](C5)N6)nc(OCC56CCCN5CC(F)(F)C6)nc4c3F)c12` (stereo partly drawn) [Example Z15, 4-(4-((1R,5S)-3,8-diazabicyclo[3.2.1]oct-6-en-3-yl)-2-((2,2-difluorotetrahydro-1H-pyrrolizin-7a(5H)-yl)methoxy)-8-fluoropyrido[4,3-d]pyrimidin-7-yl)-5-ethynylnaphthalen-2-ol] are 194 nM, 60.7 nM, 33 nM, 947 nM and more than 3000 nM.
`C#Cc1cccc2cc(O)cc(-c3ncc4c(N5C[C@H]6CC[C@@H](C5)N6)nc(OCC56CCCN5CC=C6CC)nc4c3F)c12` (stereo partly drawn) [Example Z16, 4-(4-((1R,5S)-3,8-diazabicyclo[3.2.1]octan-3-yl)-2-((7-ethyl-2,3-dihydro-1H-pyrrolizin-7a(5H)-yl)methoxy)-8-fluoropyrido[4,3-d]pyrimidin-7-yl)-5-ethynylnaphthalen-2-ol]: the IC50 is 92.6 nM in test [1] (Homo sapiens, AGS, 120 h); 54.9 nM in test [2] (Homo sapiens, AGS, 3 h); 60.7 nM in test [3]; 555 nM in test [4] (Homo sapiens, ASPC1, 120 h); more than 1000 nM in test [5].
The corresponding values for `C#Cc1cccc2cc(O)cc(-c3ncc4c(N5C[C@H]6CC[C@@H](C5)N6)nc(OCC56CC(=C)CN5CC(F)C6)nc4c3F)c12` (stereo partly drawn) [Example Z17, 4-(4-((1R,5S)-3,8-diazabicyclo[3.2.1]octan-3-yl)-8-fluoro-2-((2-fluoro-6-methylenetetrahydro-1H-pyrrolizine 7a(5H)-yl)methoxy)pyrido[4,3-d]pyrimidin-7-yl)-5-ethynylnaphthalen-2-ol] are 6.8 nM, 1.16 nM, 50 nM, 35.7 nM and 64.3 nM.
Consider `C#Cc1cccc2cc(O)cc(-c3ncc4c(N5CC6CCC(C5)N6)nc(OCC56CCCN5CCC(=C)C6)nc4c3F)c12` [Example Z18, 4-(4-((1R,5S)-3,8-diazabicyclo[3.2.1]octan-3-yl)-8-fluoro-2-((7-methylenehexahydroindolin-8a(1H)-yl)methoxy)pyrido[4,3-d]pyrimidin-7-yl)-5-ethynylnaphthalen-2-ol], for which the IC50 in test [1] was 45.3 nM; in test [2], 7.57 nM; in test [3], 59.4 nM; in test [4], 75.5 nM; in test [5] it was more than 1000 nM.
`C#Cc1cccc2cc(O)cc(-c3ncc4c(N5C[C@H]6CC[C@@H](C5)N6)nc(OCC56CCN5CC(=C)C6)nc4c3F)c12` (stereo partly drawn) [Example Z19, 4-(4-((1R,5S)-3,8-diazabicyclo[3.2.1]octan-3-yl)-8-fluoro-2-((3-methylene-1-azabicyclo[3.2.0]heptan-5-yl)methoxy)pyrido[4,3-d]pyrimidin-7-yl)-5-ethynylnaphthalen-2-ol]: the IC50 in test [1] (Homo sapiens, AGS, 120 h) stood at 31.7 nM; in test [2] (Homo sapiens, AGS, 3 h), 9.03 nM; in test [3] it was 46 nM; in test [4] (Homo sapiens, ASPC1, 120 h), 68.3 nM; in test [5], 67.8 nM.
For the compound `C#Cc1cccc2cc(O)cc(-c3c(F)cc4c(N5C[C@H]6CC[C@@H](C5)N6)nc(OCC56CCCN5CC(=C)C6)nc4c3F)c12` (stereo partly shown) [Example Z20], the IC50 turned out to be 7.7 nM in test [1]; 2.86 nM in test [2]; 105 nM in test [3]; 9.3 nM in test [4]; 110 nM in test [5].
